The values that follow come from publication PMC11928319 (Nature Plants, 2025).

Where a SMILES comes first, the peptide text is derived from it. [ ]: non-standard residue; d: D form. Hyp = O=C(O)[C@@H]1C[C@@H](O)CN1

Data set [1] has as its system filter-sterile supernatant of Rhodanobacter R179 (secreted peptidase(s)). The data set is described as follows: Peptide quantification by mass spectrometry after incubation in cell-free supernatant of Rhodanobacter R179. Format: in vitro ADME. As to conditions: for peptide detected by mass spectrometry after incubation in supernatant of the R179 dssAB mutant / peptide detected by mass spectrometry after incubation in supernatant of wild-type R179: 1 µM peptide, 1 h, LC-MS MS1 peak area; for peptide detected by mass spectrometry after incubation in supernatant of the R179 dssAB mutant: filter-sterile supernatant of dssAB mutant cultivated in XVM2 (OD600 = 0.4), n = 3; for peptide detected by mass spectrometry after incubation in supernatant of wild-type R179: filter-sterile supernatant of wild-type R179 cultivated in XVM2 minimal medium (OD600 = 0.4), light chamber, n = 3 culture supernatants. How it is done:
Elicitors were also supplemented into the medium prior to solidification at a final concentration of 1 µM. The flg22 ([…]) and AtPep1 ([…]) peptides were synthesized by EZbiolab. elf18^R179 (Ac-[…]) and elf18 (Ac-[…]) were synthesized by GenScript and EZbiolab, respectively. For inoculation with the bacterial supernatant, bacteria were cultivated overnight in XVM2 minimal medium (20 mM NaCl, 10 mM (NH4)2SO4, 5 mM MgSO4, 1 mM CaCl2, 0.16 mM KH2PO4, 0.32 mM K2HPO4, 0.01 mM FeSO4, 10 mM fructose, 10 mM sucrose, 0.03% Casamino acids, pH 6.7)[76] to a final concentration of OD600 = 0.4. Bacteria were pelleted by centrifugation (11,600 g, 2 min), and the supernatant was sterile-filtered using filter units with MF-Millipore membrane (0.22 µm; Millex). The supernatant was incubated in boiling water for 30 min for heat treatment. Then, 25 ml of 1× MS with 20 g l^−1 Bacto Agar was mixed with 25 ml of supernatant prior to medium solidification and poured into square petri dishes. Sterilized seeds were placed on solidified agar in square petri dishes and vertically incubated for 14 days.
Bacterial supernatants were prepared as described in ‘Agar-based cultivation of axenic plants and co-cultivation with bacteria, bacterial supernatants and elicitors’. Here, additionally, the peptides dRGF1 (DYSNPGHHP-Hyp-RHN) and PSY1 (D-Y(SO3H)-[…]-Hyp-Hyp-S) synthesized by Scilight Peptide were incubated for 1 h with 1 µM of peptides in a plant cultivation light chamber (day-light condition; see ‘Plant cultivation conditions’), and the samples were frozen at −20 °C until further processing. For the investigation of AtPep1 degradation, the AtPep1 peptide was first modified by acetylation (six to seven times). To this end, 100-µl aliquots of peptides were treated with 10 µl of NHS acetate solution (1 M NHS acetate in 50% ACN/PBS) and incubated for 30 min with shaking. The reaction was quenched by the addition of 100 µl of 100 mM Tris-HCl (pH 8.5) and incubated for 10 min. For comparison of the non-acetylated peptides with the above-described modified AtPep1 peptides, aliquots of the non-acetylated peptides were processed as described above, but without the modifying NHS reaction. To this end, 100-µl aliquots of the sample were mixed with 100 µl of PBS buffer (137 mM NaCl, 2.7 mM KCl, 10 mM Na2HPO4, 1.8 mM KH2PO4; pH 7.4). The samples were then further diluted with 100 µl of 100 mM Tris-HCl (pH 8.5) and incubated for 10 min. All samples were acidified with 5 µl of TFA and desalted using StageTips with C18 Empore disk membranes (3M)[109]. The samples were dried in a vacuum evaporator and dissolved in 10 µl of 2% ACN (0.1% TFA for analysis).
The samples were analysed using an EASY-nLC 1200 (Thermo Fisher) coupled to a QExactive Plus mass spectrometer (Thermo Fisher). Peptides were separated on 16-cm frit-less silica emitters (New Objective, 75 µm inner diameter), packed in-house with reversed-phase ReproSil-Pur C18 AQ 1.9 µm resin (Dr. Maisch). Peptides were loaded on the column and eluted for 50 min using a segmented linear gradient of 5% to 95% solvent B (0 min, 5% B; 0–5 min, 15% B; 5–35 min, 50% B; 35–45 min, 95% B; 45–50 min, 95% B) (solvent A: 0% ACN, 0.1% FA; solvent B: 80% ACN, 0.1% FA) at a flow rate of 300 nl min^−1. Mass spectra were acquired in data-dependent acquisition mode with a TOP10 method. Mass spectrometry spectra were acquired in the Orbitrap analyser with a mass range of 300–1,500 m/z at a resolution of 70,000 full width at half maximum (FWHM) and a target value of 3 × 10^6 ions. Precursors were selected with an isolation window of 1.3 m/z. Higher-energy collision dissociation (HCD) fragmentation was performed at a normalized collision energy of 25. Tandem mass spectrometry (MS/MS) spectra were acquired with a target value of 5 × 10^5 ions at a resolution of 17,500 FWHM, a maximum injection time of 85 ms and a fixed first mass of 100 m/z. […]

A short description of data set [2]: supernatant of the R179 dssAB mutant grown in XVM2 minimal medium supplemented with 10% TSB. As to conditions: Rhodanobacter R179 dssAB mutant, plant cultivation light chamber (day-light condition; 21 °C), up to 1 h.
Data set [3] is described as follows: filter-sterile supernatant of wild-type Rhodanobacter R179 cultivated in XVM2 medium (bacterial culture: OD600 = 0.4). To be noted: Rhodanobacter R179, plant cultivation light chamber (day-light condition; 21 °C), up to 1 h.
A short description of data set [4]: filter-sterile supernatant of the Rhodanobacter R179 dssAB mutant cultivated in XVM2 medium (bacterial culture: OD600 = 0.4). As to conditions: plant cultivation light chamber (day-light condition; 21 °C), up to 1 h.
A short description of data set [5]: supernatant of wild-type R179 grown in XVM2 medium supplemented with 10% carbon-rich medium (tryptic soy broth). To be noted: Rhodanobacter R179, plant cultivation light chamber (day-light condition; 21 °C), up to 1 h.
Setting [6] is: R179 dssAB mutant supernatant, XVM2 medium, incubation 1h, MS1 precursor area, replicate 1.
Setting [7] is: R179 dssAB mutant supernatant, XVM2 medium, incubation 1h, MS1 precursor area, replicate 2.
Setting [8] is: R179 dssAB mutant supernatant, XVM2 medium, incubation 1h, MS1 precursor area, replicate 3.
[9] abbreviates: R179 dssAB mutant supernatant, XVM2 medium, incubation 1h, peptide relative to axenic, replicate 1.
The mark [10] stands for this setting: R179 dssAB mutant supernatant, XVM2 medium, incubation 1h, peptide relative to axenic, replicate 2.
The mark [11] stands for this setting: R179 dssAB mutant supernatant, XVM2 medium, incubation 1h, peptide relative to axenic, replicate 3.
Where [12] appears, read: R179 wt supernatant, XVM2 medium, incubation 1h, MS1 precursor area, replicate 1.
The mark [13] stands for this setting: R179 wt supernatant, XVM2 medium, incubation 1h, MS1 precursor area, replicate 2.
Where [14] appears, read: R179 wt supernatant, XVM2 medium, incubation 1h, MS1 precursor area, replicate 3.
[15] abbreviates: R179 wt supernatant, XVM2 medium, incubation 1h, peptide relative to axenic, replicate 1.
[16] abbreviates: R179 wt supernatant, XVM2 medium, incubation 1h, peptide relative to axenic, replicate 2.
[17] abbreviates: R179 wt supernatant, XVM2 medium, incubation 1h, peptide relative to axenic, replicate 3.
[18] abbreviates: axenic XVM2 medium control, incubation 1h, MS1 precursor area, replicate 1.
[19] abbreviates: axenic XVM2 medium control, incubation 1h, MS1 precursor area, replicate 2.
Setting [20] is: axenic XVM2 medium control, incubation 1h, MS1 precursor area, replicate 3.
Where [21] appears, read: axenic XVM2 medium control, incubation 1h, peptide relative to axenic, replicate 1.
Setting [22] is: axenic XVM2 medium control, incubation 1h, peptide relative to axenic, replicate 2.
Where [23] appears, read: axenic XVM2 medium control, incubation 1h, peptide relative to axenic, replicate 3.

Turning to `N=C(N)NCCC[C@H](NC(=O)[C@@H]1C[C@@H](O)CN1C(=O)[C@@H]1CCCN1C(=O)[C@H](Cc1c[nH]cn1)NC(=O)[C@H](Cc1c[nH]cn1)NC(=O)CNC(=O)[C@@H]1CCCN1C(=O)[C@H](CC(N)=O)NC(=O)[C@H](CO)NC(=O)[C@H](Cc1ccc(O)cc1)NC(=O)[C@@H](N)CC(=O)O)C(=O)N[C@@H](Cc1c[nH]cn1)C(=O)N[C@@H](CC(N)=O)C(=O)O` [dRGF1] (H-DYSNPGHHP[Hyp]RHN-OH), in data set [1], the “peptide detected by mass spectrometry after incubation in supernatant of the R179 dssAB mutant” value was “still detected”. Besides, the “peptide detected by mass spectrometry after incubation in supernatant of wild-type R179” value in data set [1] is “still detected”. The “Log10(total_area_MS1)” value in data set [1] (setting [6]) is reported as 8.738; in data set [1] (setting [7]) it was 8.7982; in data set [1] (setting [8]) it was 8.898; in data set [1] (setting [12]), 8.685; in data set [1] (setting [13]), 8.632; in data set [1] (setting [14]), 8.682. Moreover, the “Log10(total_area_MS1)” value in data set [1] (axenic XVM2_TSB, 1h, 1 µM, LC-MS [M+2H], replicate 2) is reported as 8.595; in data set [1] (axenic XVM2_TSB, 1h, 1 µM, LC-MS [M+2H], replicate 3), 8.5; in data set [1] (setting [18]) it was 8.337; in data set [1] (setting [19]), 8.259; in data set [1] (setting [20]) it was 8.171; in data set [1] (supernatant of wt R179 grown in XVM2_TSB, 1h, 1 µM, LC-MS [M+2H], replicate 1), 8.931. For the same molecule, the “Log10(total_area_MS1)” value in data set [1] (supernatant of wt R179 grown in XVM2_TSB, 1h, 1 µM, LC-MS [M+2H], replicate 2) is 9.001. The percent_rel_axenic in data set [1] (setting [9]) was 299.876%; in data set [1] (setting [10]), 344.476%; in data set [1] (setting [11]), 433.442%; in data set [1] (setting [15]) it was 265.464%; in data set [1] (setting [16]), 235.074%; in data set [1] (setting [17]), 263.706%. For the same molecule, the percent_rel_axenic in data set [1] (axenic XVM2_TSB, 1h, 1 µM, LC-MS, relative to axenic, replicate 2) worked out at 103.573%; in data set [1] (axenic XVM2_TSB, 1h, 1 µM, LC-MS, relative to axenic, replicate 3), 83.3448%; in data set [1] (setting [21]) it was 119.158%; in data set [1] (setting [22]) it was 99.6152%; in data set [1] (setting [23]), 81.2268%; in data set [1] (supernatant of wt R179 grown in XVM2_TSB, 1h, 1 µM, LC-MS, relative to axenic, replicate 1) it was 225.002%. The percent_rel_axenic in data set [1] (supernatant of wt R179 grown in XVM2_TSB, 1h, 1 µM, LC-MS, relative to axenic, replicate 2) is recorded as 263.948%.
With “D-Y(SO3H)-GDPSANPKHDPGV-Hyp-Hyp-S [PSY1, root-growth-promoting sulfated PSY1 peptide]”, in data set [1], the “peptide detected by mass spectrometry after incubation in supernatant of the R179 dssAB mutant” value is “still detected”. Moreover, in data set [1], the “peptide detected by mass spectrometry after incubation in supernatant of wild-type R179” value is “still detected”. Besides, the “Log10(total_area_MS1)” value is 9.656 in data set [1] (setting [6]); 9.68 in data set [1] (setting [7]); 9.49 in data set [1] (setting [8]); 9.465 in data set [1] (setting [12]); 9.6971 in data set [1] (setting [13]); 9.627 in data set [1] (setting [14]). Further, the results for the “Log10(total_area_MS1)” value in data set [1] (setting [18]), in data set [1] (setting [19]) and in data set [1] (setting [20]) were 10.5778, 10.3906 and 10.2645, respectively. Further, the percent_rel_axenic is on record as 16.8242% in data set [1] (setting [9]); 17.7896% in data set [1] (setting [10]); 11.4643% in data set [1] (setting [11]); 10.8248% in data set [1] (setting [15]); 18.4872% in data set [1] (setting [16]); 15.7291% in data set [1] (setting [17]). Further, the percent_rel_axenic in data set [1] (setting [21]) is 140.453%; in data set [1] (setting [22]), 91.2772%; in data set [1] (setting [23]), 68.27%.
Turning to DYSNPGHHP-Hyp-RHN, the not cleaved entry in data set [2] is “peak area above 100% relative to mock (Extended Data Fig. 7d)”; in data set [3] it was “still detected after 1 h; peak area above 100% relative to mock (Fig. 4a)”; in data set [4], “still detected after 1 h; peak area above 100% relative to mock (Fig. 4a)”; in data set [5], “peak area above 100% relative to mock (Extended Data Fig. 7d)”.
